Experimental data reported in US11225505B2, “Antimicrobial polymyxin derivative compounds” (MONASH UNIVERSITY, priority 2015, dated 2022).
In brackets after ≈: the same amount, converted by molar mass. Where a SMILES comes first, the peptide text is derived from it. Bridges are numbered along the chain shown (N, C = ends). [ ]: non-standard residue; d: D form. The star is where a group is joined. X19 = O=C(c1ncc(C(F)(F)F)cc1Cl)*; X9 = O=C(c1ccnc(C(F)(F)F)c1)*; X17 = O=C(c1ncc(Br)cc1Cl)*; X30 = O=C(c1ccc(Cl)cn1)*; Dab = NCC[C@H](N)C(=O)O; Abu = CC[C@H](N)C(=O)O; Dap = NC[C@H](N)C(=O)O; X31 = O=C(c1ncccc1Cl)*; X53 = O=C(c1ccncc1Cl)*; X8 = O=C(c1ccnc(F)c1)*

Legend:
Assay type in all cases: cell-based
[1] = system: Acinetobacter baumannii ATCC 17978; details: ATCC 17978
Summary of the method: (§1)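 Lipopeptides (TFA salts) tested against Gram-negative strains by CLSI broth microdilution using cation-adjusted Mueller-Hinton broth; MIC recorded, polymyxin B sulphate as control.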

[2] = system: Acinetobacter baumannii FADDI-AB034; details: FADDI-AB034
Summary of the method: as §1

[3] = system: Enterobacter cloacae FADDI-EC001; details: FADDI-EC001
Summary of the method: (§2)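 Values are MICs of the lipopeptide trifluoroacetic acid salts. Dilution series were set up in CAMHB as CLSI M100-S24 specifies.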

[4] = system: Enterobacter cloacae FADDI-EC003; details: FADDI-EC003
Summary of the method: as §1

[5] = system: Enterobacter cloacae FADDI-EC006; details: FADDI-EC006
Summary of the method: as §1

[6] = system: Klebsiella pneumoniae FADDI-KP022; details: FADDI-KP022
Summary of the method: as §1

[7] = system: Klebsiella pneumoniae FADDI-KP032; details: FADDI-KP032
Summary of the method: as §1

[8] = system: Klebsiella pneumoniae Kp BM1; details: Kp BM1
Summary of the method: as §2

[9] = system: Pseudomonas aeruginosa ATCC 27853; details: ATCC 27853
Summary of the method: as §1

[10] = system: Pseudomonas aeruginosa FADDI-PA01; details: FADDI-
Summary of the method: as §1

[11] = system: Pseudomonas aeruginosa FADDI-PA022; details: FADDI-PA022
Summary of the method: as §1

[12] = system: Pseudomonas aeruginosa FADDI-PA038; details: FADDI-PA038
Summary of the method: as §1

[13] = system: Acinetobacter baumannii FADDI-AB030; experiment: microbe, parasite or virus in culture; details: FADDI-AB030
Summary of the method: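 Lipopeptide TFA salts tested against the multidrug-resistant clinical isolate by CLSI (M100-S24) broth microdilution in cation-adjusted Mueller-Hinton broth, with polymyxin B sulphate as control; MIC read.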

`CC[C@@H]1NC(=O)[C@@H](CC(C)C)NC(=O)[C@H](CCN)NC(=O)[C@@H](NC(=O)[C@H](CN)NC(=O)[C@@H](NC(=O)[C@H](CCN)NC(=O)c2ccnc(F)c2)[C@@H](C)O)CCNC(=O)[C@H]([C@@H](C)O)NC(=O)[C@H](CCN)NC(=O)[C@H](CCN)NC1=O` [Compound 31] (X8-[Dab]T[Dap][Dab][Dab][dL][Abu][Dab][Dab]T; lactam 4-C) showed a Minimum inhibitory concentration [1] of 2 µg/mL (≈ 1.8 µM), a Minimum inhibitory concentration [2] of 2 µg/mL (≈ 1.8 µM) and a Minimum inhibitory concentration [3] of 0.5 µg/mL (≈ 0.45 µM). The Minimum inhibitory concentration [4] was 0.5 µg/mL (≈ 0.45 µM), the Minimum inhibitory concentration [5] was 1 µg/mL (≈ 0.901 µM) and the Minimum inhibitory concentration [6] was under 0.125 µg/mL. The Minimum inhibitory concentration [7] was 1 µg/mL (≈ 0.901 µM), the Minimum inhibitory concentration [8] was 1 µg/mL (≈ 0.901 µM) and the Minimum inhibitory concentration [9] was 0.25 µg/mL (≈ 0.225 µM). For the same molecule, the Minimum inhibitory concentration [10] was 0.25 µg/mL (≈ 0.225 µM), the Minimum inhibitory concentration [11] was 0.25 µg/mL (≈ 0.225 µM) and the Minimum inhibitory concentration [12] was 0.5 µg/mL (≈ 0.45 µM). For the same molecule, the Minimum inhibitory concentration [13] was 2 µg/mL (≈ 1.8 µM).
`CC(C)C[C@H]1NC(=O)[C@H](CCN)NC(=O)[C@@H](NC(=O)[C@H](CN)NC(=O)[C@@H](NC(=O)[C@H](CCN)NC(=O)c2ccnc(C(F)(F)F)c2)[C@@H](C)O)CCNC(=O)[C@H]([C@@H](C)O)NC(=O)[C@H](CCN)NC(=O)[C@H](CCN)NC(=O)[C@H]([C@@H](C)O)NC1=O` [Compound 32] (X9-[Dab]T[Dap][Dab][Dab][dL]T[Dab][Dab]T; lactam 4-C; N-terminus assumed) was tested, and the Minimum inhibitory concentration [1] was 4 µg/mL (≈ 3.4 µM), the Minimum inhibitory concentration [2] was 2 µg/mL (≈ 1.7 µM) and the Minimum inhibitory concentration [3] was 1 µg/mL (≈ 0.85 µM). For the same molecule, the Minimum inhibitory concentration [4] was 0.5 µg/mL (≈ 0.425 µM), the Minimum inhibitory concentration [5] was 1 µg/mL (≈ 0.85 µM) and the Minimum inhibitory concentration [6] was under 0.125 µg/mL. For the same molecule, the Minimum inhibitory concentration [7] was 0.25 µg/mL (≈ 0.213 µM), the Minimum inhibitory concentration [8] was 1 µg/mL (≈ 0.85 µM) and the Minimum inhibitory concentration [9] was 0.5 µg/mL (≈ 0.425 µM). For the same molecule, the Minimum inhibitory concentration [10] was 1 µg/mL (≈ 0.85 µM), the Minimum inhibitory concentration [11] was 0.5 µg/mL (≈ 0.425 µM) and the Minimum inhibitory concentration [12] was 0.5 µg/mL (≈ 0.425 µM). For the same molecule, the Minimum inhibitory concentration [13] was 1 µg/mL (≈ 0.85 µM).
In the case of `CC[C@@H]1NC(=O)[C@@H](CC(C)C)NC(=O)[C@H](CCN)NC(=O)[C@@H](NC(=O)[C@H](CN)NC(=O)[C@@H](NC(=O)[C@H](CCN)NC(=O)c2ncc(Br)cc2Cl)[C@@H](C)O)CCNC(=O)[C@H]([C@@H](C)O)NC(=O)[C@H](CCN)NC(=O)[C@H](CCN)NC1=O` [Compound 33] (X17-[Dab]T[Dap][Dab][Dab][dL][Abu][Dab][Dab]T; lactam 4-C), the Minimum inhibitory concentration [1] is reported as 0.5 µg/mL (≈ 0.415 µM), the Minimum inhibitory concentration [2] is reported as 0.5 µg/mL (≈ 0.415 µM) and the Minimum inhibitory concentration [3] is reported as under 0.125 µg/mL. The Minimum inhibitory concentration [4] was under 0.125 µg/mL, the Minimum inhibitory concentration [5] was under 0.125 µg/mL and the Minimum inhibitory concentration [6] was under 0.125 µg/mL. It also gave a Minimum inhibitory concentration [7] of under 0.125 µg/mL, a Minimum inhibitory concentration [8] of under 0.125 µg/mL and a Minimum inhibitory concentration [9] of 0.25 µg/mL (≈ 0.207 µM). The Minimum inhibitory concentration [10] was 0.25 µg/mL (≈ 0.207 µM), the Minimum inhibitory concentration [11] was 0.25 µg/mL (≈ 0.207 µM) and the Minimum inhibitory concentration [12] was 0.5 µg/mL (≈ 0.415 µM). The Minimum inhibitory concentration [13] was 0.5 µg/mL (≈ 0.415 µM).
With `CC[C@@H]1NC(=O)[C@@H](CC(C)C)NC(=O)[C@H](CCN)NC(=O)[C@@H](NC(=O)[C@H](CN)NC(=O)[C@@H](NC(=O)[C@H](CCN)NC(=O)c2ccncc2Cl)[C@@H](C)O)CCNC(=O)[C@H]([C@@H](C)O)NC(=O)[C@H](CCN)NC(=O)[C@H](CCN)NC1=O` [Compound 34] (X53-[Dab]T[Dap][Dab][Dab][dL][Abu][Dab][Dab]T; lactam 4-C) the Minimum inhibitory concentration [1] was 8 µg/mL (≈ 7.1 µM), the Minimum inhibitory concentration [2] was 8 µg/mL (≈ 7.1 µM) and the Minimum inhibitory concentration [3] was 0.25 µg/mL (≈ 0.222 µM). For the same molecule, the Minimum inhibitory concentration [4] was 0.5 µg/mL (≈ 0.444 µM), the Minimum inhibitory concentration [5] was 2 µg/mL (≈ 1.78 µM) and the Minimum inhibitory concentration [6] was under 0.125 µg/mL. It also gave a Minimum inhibitory concentration [7] of 1 µg/mL (≈ 0.888 µM), a Minimum inhibitory concentration [8] of 1 µg/mL (≈ 0.888 µM) and a Minimum inhibitory concentration [9] of 0.25 µg/mL (≈ 0.222 µM). It also gave a Minimum inhibitory concentration [10] of 0.25 µg/mL (≈ 0.222 µM), a Minimum inhibitory concentration [11] of 0.25 µg/mL (≈ 0.222 µM) and a Minimum inhibitory concentration [12] of 1 µg/mL (≈ 0.888 µM). For the same molecule, the Minimum inhibitory concentration [13] was 8 µg/mL (≈ 7.1 µM).
`CC[C@@H]1NC(=O)[C@@H](CC(C)C)NC(=O)[C@H](CCN)NC(=O)[C@@H](NC(=O)[C@H](CN)NC(=O)[C@@H](NC(=O)[C@H](CCN)NC(=O)c2ncc(C(F)(F)F)cc2Cl)[C@@H](C)O)CCNC(=O)[C@H]([C@@H](C)O)NC(=O)[C@H](CCN)NC(=O)[C@H](CCN)NC1=O` [Compound 35] (X19-[Dab]T[Dap][Dab][Dab][dL][Abu][Dab][Dab]T; lactam 4-C) was tested, and the Minimum inhibitory concentration [1] was 0.25 µg/mL (≈ 0.209 µM), the Minimum inhibitory concentration [2] was 0.25 µg/mL (≈ 0.209 µM) and the Minimum inhibitory concentration [3] was under 0.125 µg/mL. The Minimum inhibitory concentration [4] was under 0.125 µg/mL, the Minimum inhibitory concentration [5] was under 0.125 µg/mL and the Minimum inhibitory concentration [6] was under 0.125 µg/mL. It also gave a Minimum inhibitory concentration [7] of under 0.125 µg/mL, a Minimum inhibitory concentration [8] of under 0.125 µg/mL and a Minimum inhibitory concentration [9] of 0.25 µg/mL (≈ 0.209 µM). The Minimum inhibitory concentration [10] was 0.25 µg/mL (≈ 0.209 µM), the Minimum inhibitory concentration [11] was 0.5 µg/mL (≈ 0.419 µM) and the Minimum inhibitory concentration [12] was 0.5 µg/mL (≈ 0.419 µM). For the same molecule, the Minimum inhibitory concentration [13] was under 0.125 µg/mL.
In the case of `CC[C@@H]1NC(=O)[C@@H](CC(C)C)NC(=O)[C@H](CCN)NC(=O)[C@@H](NC(=O)[C@H](CN)NC(=O)[C@@H](NC(=O)[C@H](CCN)NC(=O)c2ncccc2Cl)[C@@H](C)O)CCNC(=O)[C@H]([C@@H](C)O)NC(=O)[C@H](CCN)NC(=O)[C@H](CCN)NC1=O` [Compound 36] (X31-[Dab]T[Dap][Dab][Dab][dL][Abu][Dab][Dab]T; lactam 4-C), the Minimum inhibitory concentration [1] is reported as 8 µg/mL (≈ 7.1 µM), the Minimum inhibitory concentration [2] is reported as 4 µg/mL (≈ 3.55 µM) and the Minimum inhibitory concentration [3] is reported as 0.25 µg/mL (≈ 0.222 µM). The Minimum inhibitory concentration [4] was 0.5 µg/mL (≈ 0.444 µM), the Minimum inhibitory concentration [5] was 2 µg/mL (≈ 1.78 µM) and the Minimum inhibitory concentration [6] was under 0.125 µg/mL. For the same molecule, the Minimum inhibitory concentration [7] was 1 µg/mL (≈ 0.888 µM), the Minimum inhibitory concentration [8] was 2 µg/mL (≈ 1.78 µM) and the Minimum inhibitory concentration [9] was 0.5 µg/mL (≈ 0.444 µM). The Minimum inhibitory concentration [10] was 0.5 µg/mL (≈ 0.444 µM), the Minimum inhibitory concentration [11] was 0.5 µg/mL (≈ 0.444 µM) and the Minimum inhibitory concentration [12] was 1 µg/mL (≈ 0.888 µM). For the same molecule, the Minimum inhibitory concentration [13] was 4 µg/mL (≈ 3.55 µM).
With `CC[C@@H]1NC(=O)[C@@H](CC(C)C)NC(=O)[C@H](CCN)NC(=O)[C@@H](NC(=O)[C@H](CN)NC(=O)[C@@H](NC(=O)[C@H](CCN)NC(=O)c2ccc(Cl)cn2)[C@@H](C)O)CCNC(=O)[C@H]([C@@H](C)O)NC(=O)[C@H](CCN)NC(=O)[C@H](CCN)NC1=O` [Compound 37] (X30-[Dab]T[Dap][Dab][Dab][dL][Abu][Dab][Dab]T; lactam 4-C) the Minimum inhibitory concentration [1] was 2 µg/mL (≈ 1.78 µM), the Minimum inhibitory concentration [2] was 1 µg/mL (≈ 0.888 µM) and the Minimum inhibitory concentration [3] was 0.25 µg/mL (≈ 0.222 µM). For the same molecule, the Minimum inhibitory concentration [4] was 0.25 µg/mL (≈ 0.222 µM), the Minimum inhibitory concentration [5] was 0.5 µg/mL (≈ 0.444 µM) and the Minimum inhibitory concentration [6] was under 0.125 µg/mL. It also gave a Minimum inhibitory concentration [7] of under 0.125 µg/mL, a Minimum inhibitory concentration [8] of under 0.125 µg/mL and a Minimum inhibitory concentration [9] of 0.25 µg/mL (≈ 0.222 µM). It also gave a Minimum inhibitory concentration [10] of 0.25 µg/mL (≈ 0.222 µM), a Minimum inhibitory concentration [11] of 0.25 µg/mL (≈ 0.222 µM) and a Minimum inhibitory concentration [12] of 0.5 µg/mL (≈ 0.444 µM). For the same molecule, the Minimum inhibitory concentration [13] was 0.5 µg/mL (≈ 0.444 µM).
